Assays:
[1] = Stabilization of fluorescein-labelled amyloidogenic full length immunoglobulin light chain dimer (unknown origin) assessed as concentration of stabilizer that affords 50% maximal proteinase K protection by protease coupled fluorescence polarization assay; parameters: species or system Homo sapiens
[2] = Stabilization of fluorescein-labelled amyloidogenic full length immunoglobulin light chain dimer T46L/F49Y mutant (unknown origin) assessed as concentration of stabilizer that affords 50% maximal proteinase K protection by protease coupled fluorescence polarization assay; parameters: species or system Homo sapiens
Homo sapiens = species on record: Homo sapiens; test: Stabilization of unlabeled amyloidogenic full length immunoglobulin light chain dimer (unknown origin) assessed as fold proteinase K protection at 10 uM by size-exclusion chromatography

| EC50 [1] [nM] | EC50 [2] [nM] | fold change (FC) (Homo sapiens) | SMILES |
| --- | --- | --- | --- |
| 1040 | 2050 | 0.5 | CCN(CC)c1ccc2c(C)c(CCNC(=O)NCCc3cccnc3)c(=O)oc2c1 |
| 1750 | 2660 | 0.39 | CCN(CC)c1ccc2c(C)c(CC(=O)NCCN(C)C)c(=O)oc2c1 |
| 634 | 2110 | 0.61 | CCN(CC)c1ccc2c(C)c(CCC(=O)NCCc3cccnc3)c(=O)oc2c1 |
|  |  | 0.91 | CCN(CC)c1ccc2c(C)c(CCOC(=O)NCc3cccc(-c4c[nH]cn4)c3)c(=O)oc2c1 |
| 1830 | 853 | 0.28 | CCN(CC)c1ccc2c(C)c(CC(=O)NCCc3ccccc3)c(=O)oc2c1 |
| 490 | 513 | 0.17 | CCN(CC)c1ccc2c(C)c(CCNC(=O)CCc3ccccc3)c(=O)oc2c1 |
| 233 | 377 | 0.74 | CCN(CC)c1ccc2c(C)c(CCNC(=O)NCc3cncc4ccccc34)c(=O)oc2c1 |
| 1180 | 1610 | 0.55 | CCN(CC)c1ccc2c(C)c(CCNC(=O)CCc3cccnc3)c(=O)oc2c1 |
| 140 | 74.1 | 0.81 | CCN(CC)c1ccc2c(C)c(CCNC(=O)NCc3cccc(-c4c[nH]cn4)c3)c(=O)oc2c1 |
| 6800 | > 10000 | 0.13 | CCN(CC)c1ccc2c(C)c(CCC(=O)NCCN(C)C)c(=O)oc2c1 |
| 348 | 381 | 0.69 | CCN(CC)c1ccc2c(C)c(CCNC(=O)NCc3ccccc3)c(=O)oc2c1 |
| 111 | 27.4 | 0.66 | CCN(CC)c1ccc2c(C)c(CCNC(=O)NCc3ccc4ccccc4c3)c(=O)oc2c1 |
| 462 | 810 | 0.66 | CCN(CC)c1ccc2c(C)c(CCNC(=O)NCc3cccnc3)c(=O)oc2c1 |

| SMILES | EC50 [1] [nM] | EC50 [2] [nM] | fold change (FC) (Homo sapiens) |
| --- | --- | --- | --- |
| CCN(CC)c1ccc2c(C)cc(=O)oc2c1 |  |  | 0.28 |

From ChEMBL document CHEMBL5131456, “Amyloidogenic immunoglobulin light chain kinetic stabilizers comprising a simple urea linker module reveal a novel binding sub-site” (Bioorg Med Chem Lett, 2022)
